Source: patent US20110183969A1, “ANTIFUNGAL COMBINATION THERAPY” (priority 2008, published 2011)
In brackets after ≈: the same amount, converted by molar mass. Like-named read-outs stand apart in the source and are kept apart here.

Key:
Test in all cases: MIC (YAG medium)
Format in all cases: cell-based
Aspergillus terreus AT49 = details: for MIC: Aspergillus terreus
Method: (§1) Between 1 and 5 mgs of compound were accurately weighed out into a sterile Eppendorf tube. The compound was dissolved in DMSO to give a solution containing 5 mg/mL. Tubes were stored at −20° C. until required.
(§2) On the day of testing thawed solutions were vortex mixed to ensure homogeneity. 30 μL of solution was removed and added to 570 μL of sterile water in a separate sterile Eppendorf The thoroughly mixed solution was used to prepare a series of doubling dilutions in water, in a deep well plate. […] replicate plates were prepared using a Minitrak by aspirating 20 μL from each well into eleven clear polystyrene 96 well plates.
(§3) Spores of Aspergillus spp. (Aspergillus fumigatus [two strains], Aspergillus terreus [two strains], Aspergillus niger and Aspergillus flavus) were harvested from cultures grown on Sabarauds agar for 5 days, and resuspended in PBS/Tween 80 to approx 1×10^7 cfu/mL. Other filamentous fungi (Absidia corymbifera, Fusarium solani, Rhizomucor, Scedosporium spp., Trichophyton spp.), were grown on Sabarauds agar for 2-10 days and spores/hyphae resuspended in PBS/Tween to give approx 1×10^7 cfu/mL. Candida species (Candida albicans, Candida glabrata, Candida krusei, Candida parapsilosis and Candida tropicalis) were grown on Sabarauds agar, cells were harvested from the agar using a sterile loop and resuspended in PBS/Tween 80 to approx 1×10^6 cfu/mL. Each organism suspension was diluted in RPMI medium, containing 2% glucose and 0.135 M MOPS buffer (pH 7.0) to 0.5−2×10^4 cfu/mL for Aspergillus spp. and other filamentous fungi and 0.5-2×10^3 cfu/mL for yeast. 80 μL of an organism suspension was added to each well of the plate containing drug dilutions.
(§4) This produced MIC plates with a drug range 50-0.05 mg/L and organism inocula of 1-2×10^4 cfu/mL for Aspergillus spp. and other filamentous fungi and 1-2×10^3 cfu/mL for yeasts. All plates were incubated for 24-48 hrs at 35° C. Growth was assessed by monitoring the optical density at 485 nm for each well. The MIC of a compound is the lowest drug concentration that inhibits growth of an organism by >80% compared with a drug free control. MICs are recorded as mg/L. Other growth media can be used for susceptibility testing, and the activity of the described compounds can also be assessed in a medium comprising 1% glucose, 1% ammonium chloride and 0.5% yeast extract (YAG medium). To perform MIC tests in this medium, dilutions of compounds are prepared in microtitre plates as described above. Fungal strains to be tested are grown and harvested in an identical manner to that described above, each organism suspension is then diluted in YAG medium to 0.5-2×10^4 cfu/mL for Aspergillus spp. and other filamentous fungi and 0.5-2×10^3 cfu/mL for yeast. 80 μL of an organism suspension was added to each well of the plate containing drug dilutions. This produced MIC plates with a drug range 50-0.05 mg/L and organism inocula of 1-2×10^4 cfu/mL for Aspergillus spp. and other filamentous fungi and 1-2×10^3 cfu/mL for yeasts. All plates were incubated for 24 hrs at 35° C. Growth was assessed by monitoring the optical density at 485 nm for each well. The MIC of a compound is the lowest drug concentration that inhibits growth of an organism by >70% compared with a drug free control. MICs are recorded as mg/L. In cases where the MIC of an organism is […] mg/L the MIC is repeated using a concentration range of 0.5-0.0005 mg/L. MIC tests in YAG medium have more clear-cut endpoints and have slightly lower MICs than those performed in RPMI medium.
(§5) The following organisms were tested: Absidia corymbifera, Aspergillus flavus, Aspergillus fumigatus AF293 and AF210, Aspergillus niger, Aspergillus terreus AT4 and AT49, Candida albicans, Candida glabrata, Candida krusei, Candida parapsilosis, Candida tropicalis, Fusarium solani, Rhizomucor sp., Scedosporium apiospermum, Scedosporium prolificans, Trichophyton mentagrophytes, and Trichophyton rubrum.

Aspergillus niger = details: for MIC: Aspergillus niger, read-out: MIC A. niger (grade)
Method: as §1, §2, §3, §4, §5

Aspergillus terreus AT4 = details: for MIC: Aspergillus terreus
Method: as §1, §2, §3, §4, §5

[1] = system: Aspergillus fumigatus AF293; details: for MIC: Aspergillus fumigatus
Method: as §1, §2, §3, §4, §5

[2] = system: Aspergillus fumigatus AF210; details: for MIC: Aspergillus fumigatus
Method: as §1, §2, §3, §4, §5

Aspergillus flavus = details: for MIC: Aspergillus flavus, read-out: MIC A. flavus (grade)
Method: as §1, §2, §3, §4, §5

[3] = YAG medium, MIC banded into grades
[4] = YAG medium, MIC banded into grades, AT49, read-out: MIC A. terreus 49 (grade)
[5] = YAG medium, MIC banded into grades, AT4, read-out: MIC A. terreus (grade)
[6] = YAG medium, MIC banded into grades, AF293, read-out: MIC A. fumigatus (grade)
[7] = YAG medium, MIC banded into grades, AF210, read-out: MIC A. fumigatus 210 (grade)

Compound | MIC (Aspergillus terreus AT49; [4]) | MIC (Aspergillus niger; [3]) | MIC (Aspergillus terreus AT4; [5]) | MIC [1, 6] | MIC [2, 7] | MIC (Aspergillus flavus; [3]) | other results
2-Oxo-2-(2-phenyl-indolizin-3-yl)-N-{4-[4-(2-pyridin-yl-ethyl)-perazin-1-yl]-phenyl}-acetamide [Example 36] |  |  |  |  |  |  | MIC A. terreus 49 (grade) (Aspergillus terreus AT49; YAG medium, MIC banded into grades, AT49): 3 (A grade of 3 represents an MIC of less than 1 mg/L); MIC A. niger (grade) (Aspergillus niger; [3]): 3 (A grade of 3 represents an MIC of less than 1 mg/L); MIC A. terreus (grade) (Aspergillus terreus AT4; YAG medium, MIC banded into grades, AT4): 3 (A grade of 3 represents an MIC of less than 1 mg/L); MIC A. fumigatus (grade) ([1]; YAG medium, MIC banded into grades, AF293): 3 (A grade of 3 represents an MIC of less than 1 mg/L); MIC A. fumigatus 210 (grade) ([2]; YAG medium, MIC banded into grades, AF210): 3 (A grade of 3 represents an MIC of less than 1 mg/L); MIC A. flavus (grade) (Aspergillus flavus; [3]): 3 (A grade of 3 represents an MIC of less than 1 mg/L)
O=C(Nc1ccc(N2CCS(=O)(=O)CC2)cc1)C(=O)c1c(-c2ccccc2)cc2ccccn12 [Example 1, N-[4-(1,1-Dioxo-1λ^6-thiomorpholin-4-yl)-phenyl]-2-oxo-2-(2-phenyl-indolizin-3-yl)-acetamide] | > 10 µg/mL | > 10 µg/mL | 1 to 10 µg/mL (≈ 2.11 to 21.1 µM) | > 10 µg/mL | > 10 µg/mL | 1 to 10 µg/mL (≈ 2.11 to 21.1 µM) | 
O=C(Nc1ccccc1F)C(=O)c1c(-c2ccccc2)cc2ccc3ccccc3n12 [Example 4, N-(2-fluoro-phenyl)-2-oxo-2-(2-phenyl-pyrrolo[1,2-a]quinolin-1-yl)-acetamide] | > 10 µg/mL | > 10 µg/mL | > 10 µg/mL | > 10 µg/mL | > 10 µg/mL | > 10 µg/mL | 
CS(=O)(=O)NC(=O)c1ccc(NC(=O)C(=O)c2c(-c3ccccc3)cc3ccccn23)cc1 [Example 5, N-(4-methanesulfonylaminocarbonyl-phenyl)-2-oxo-2-(2-phenyl-indolizin-3-yl)-acetamide] | > 10 µg/mL | > 10 µg/mL | > 10 µg/mL | > 10 µg/mL | > 10 µg/mL | > 10 µg/mL | 
COc1ccc(NC(=O)C(=O)c2c(C)c(-c3ccccc3)c3ccccn23)cc1 [Example 6, N-(4-methoxy-phenyl)-2-(2-methyl-1-phenyl-indolizin-3-yl)-2-oxo-acetamide] | > 10 µg/mL | > 10 µg/mL | > 10 µg/mL | > 10 µg/mL | > 10 µg/mL | > 10 µg/mL | 
Cc1c(-c2ccccc2)c2ccccn2c1C(=O)C(=O)Nc1ccc(N2CCOCC2)cc1 [Example 7, 2-(2-methyl-1-phenyl-indolizin-3-yl)-N-(4-morpholin-4-yl-phenyl)-2-oxo-acetamide] | > 10 µg/mL | > 10 µg/mL | > 10 µg/mL | > 10 µg/mL | > 10 µg/mL | > 10 µg/mL | 
CN1/C(=N/c2ccc(NC(=O)C(=O)c3c(-c4ccccc4)cc4ccccn34)cc2)OCC1(C)C [Example 8, 2-oxo-2-(2-phenyl-indolizin-3-yl)-N-{4-[3,4,4-trimethyl-oxazolidin-(2Z)-ylideneamino]-phenyl}-acetamide] | 1 to 10 µg/mL (≈ 2.14 to 21.4 µM) | > 10 µg/mL | > 10 µg/mL | > 10 µg/mL | > 10 µg/mL | > 10 µg/mL | 
O=C1Cc2cc(NC(=O)C(=O)c3c(-c4ccccc4)cc4ccccn34)ccc2N1 [Example 9, 2-Oxo-N-(2-oxo-2,3-dihydro-1H-indol-5-yl)-2-(2-phenyl-indolizin-3-yl)-acetamide] |  |  |  |  |  |  | MIC (Aspergillus terreus AT49; AT49, read-out: MIC A. terreus 49 (grade)): > 10 µg/mL; MIC (Aspergillus niger): > 10 µg/mL; MIC (Aspergillus terreus AT4; AT4, read-out: MIC A. terreus (grade)): > 10 µg/mL; MIC ([1]; AF293, read-out: MIC A. fumigatus (grade)): > 10 µg/mL; MIC ([2]; AF210, read-out: MIC A. fumigatus 210 (grade)): > 10 µg/mL; MIC (Aspergillus flavus): > 10 µg/mL
CCC(CC)N1CCN(c2ccc(NC(=O)C(=O)c3c(-c4ccccc4Cl)cc4ccccn34)cn2)CC1 [Example 10, 2-[2-(2-chloro-phenyl)-indolizin-3-yl]-N-{6-[4-(1-ethyl-propyl)-piperazin-1-yl]-pyridin-3-yl}-2-oxo-acetamide] | < 1 µg/mL | < 1 µg/mL | < 1 µg/mL | < 1 µg/mL | < 1 µg/mL | < 1 µg/mL | 
O=C(Nc1ccc(C(=O)OC2CCOCC2)c(O)c1)C(=O)c1c(-c2ccccc2)cc2ccccn12 [Example 11, 2-hydroxy-4-[2-oxo-2-(2-phenyl-indolizin-3-yl)-acetylamino]-benzoic acid tetrahydro-pyran-4-yl ester] | < 1 µg/mL | < 1 µg/mL | < 1 µg/mL | < 1 µg/mL | < 1 µg/mL | < 1 µg/mL | 
Cc1cc(NC(=O)C(=O)c2c(-c3ccccc3)cc3ccccn23)ccc1OCCCn1ccnc1C(C)C [Example 12, N-{4-[3-(2-Isopropyl-imidazol-1-yl)-propoxy]-3-methyl-phenyl}-2-oxo-2-(2-phenyl-indolizin-3-yl)-acetamide] | 1 to 10 µg/mL (≈ 1.92 to 19.2 µM) | > 10 µg/mL | 1 to 10 µg/mL (≈ 1.92 to 19.2 µM) | 1 to 10 µg/mL (≈ 1.92 to 19.2 µM) | 1 to 10 µg/mL (≈ 1.92 to 19.2 µM) | < 1 µg/mL | 
CC(C)c1nc(C(C)(C)c2cccc(NC(=O)C(=O)c3c(-c4ccccc4)cc4ccccn34)c2)cn1C [Example 14, N-{3-[1-(2-Isopropyl-1-methyl-1H-imidazol-4-yl)-1-methyl-ethyl]-phenyl}-2-oxo-2-(2-phenyl-indolizin-3-yl)-acetamide] | 1 to 10 µg/mL (≈ 1.98 to 19.8 µM) | > 10 µg/mL | 1 to 10 µg/mL (≈ 1.98 to 19.8 µM) | > 10 µg/mL | > 10 µg/mL | 1 to 10 µg/mL (≈ 1.98 to 19.8 µM) | 
CC(C)c1ncc(C(C)(C)c2cccc(NC(=O)C(=O)c3c(-c4ccccc4)cc4ccccn34)c2)n1C [Example 15, N-{3-[1-(2-Isopropyl-3-methyl-3H-imidazol-4-yl)-1-methyl-ethyl]-phenyl}-2-oxo-2-(2-phenyl-indolizin-3-yl)-acetamide] | > 10 µg/mL | > 10 µg/mL | > 10 µg/mL | > 10 µg/mL | > 10 µg/mL | > 10 µg/mL | 
CC(C)c1nc(C(C)(C)c2ccc(NC(=O)C(=O)c3c(-c4ccccc4)cc4ccccn34)cc2)cn1C [Example 16, N-{4-[1-(2-isopropyl-1-methyl-1H-imidazol-4-yl)-1-methyl-ethyl]-phenyl}-2-oxo-2-(2-phenyl-indolizin-3-yl)-acetamide] | < 1 µg/mL | 1 to 10 µg/mL (≈ 1.98 to 19.8 µM) | < 1 µg/mL | 1 to 10 µg/mL (≈ 1.98 to 19.8 µM) | 1 to 10 µg/mL (≈ 1.98 to 19.8 µM) | < 1 µg/mL | 
CC(C)c1ncc(C(C)(C)c2ccc(NC(=O)C(=O)c3c(-c4ccccc4)cc4ccccn34)cc2)n1C [Example 17, N-{4-[1-(2-Isopropyl-3-methyl-3H-imidazol-4-yl)-1-methyl-ethyl]-phenyl}-2-oxo-2-(2-phenyl-indolizin-3-yl)-acetamide] | 1 to 10 µg/mL (≈ 1.98 to 19.8 µM) | 1 to 10 µg/mL (≈ 1.98 to 19.8 µM) | 1 to 10 µg/mL (≈ 1.98 to 19.8 µM) | > 10 µg/mL | > 10 µg/mL | > 10 µg/mL | 
